Tests used:
[1] = test system: wheat leaf blight pathogen (Septoria tritici); assay: Fungicidal test for wheat leaf blight (microplate, turbidity at 405 nm); format: cell-based; settings: for inhibition at 6.3 ppm / inhibition at 12.5 ppm / inhibition at 25 ppm / inhibition at 50 ppm / inhibition at 100 ppm: component (I) alone
Method: Compounds of component (I) and component (II) were dissolved in dimethyl sulfoxide at 10,000 ppm and diluted with water to the prescribed concentration to prepare a chemical agent solution. A mixture of the prescribed concentration of the chemical agent solution, wheat leaf blight pathogen (Septoria tritici) conidia, and malt extract was prepared on a microplate and incubated at 20° C. in the dark for 3 days. The turbidity at a wavelength of 405 nm was measured with a microplate reader, and the growth of wheat leaf blight pathogen was compared with that of no treatment control to determine the growth inhibition rate. The results are shown in Tables 2 to 7, along with the expected values calculated as below.
Each expected value was calculated from the fungicidal efficacy of a single application of the compound of component (I) and the fungicidal efficacy of a single application of compound of component (II) by using Colby's equation (S. R. Colby, Calculating synergistic and antagonistic responses of herbicide combinations, Weeds, 15, 20-22 pp (1967)).
[formula] • where E represents the expected value of the growth inhibition rate (%) for the composition containing component (I) and component (II), M represents the growth inhibition rate (%) when the component (I) is used alone, and N represents the growth inhibition rate (%) when the component (II) is used alone. When the measured growth inhibition rate (%) for the composition containing component (I) and component (II) is greater than the expected value E, the composition containing components (I) and component (II) should exert a synergistic effect.

[2] = test system: soybean rust pathogen (Phakopsora pachyrhizi); assay: Soybean rust control test (leaf discs); format: in vivo
Method: Compounds of component (I) and component (II) were dissolved in dimethyl sulfoxide and diluted with water to the prescribed concentration to prepare a chemical agent solution. A mixture of the prescribed concentration of the chemical agent solution and sterile water was prepared on a microplate, and leaf discs cut from soybean leaves were floated on the microplate. Uredospores of soybean rust pathogen (Phakopsora pachyrhizi) were inoculated and incubated at 25° C. for 9 days. The area percentage of lesions was determined by observing uredospore-forming lesions on the leaf discs, and the control value was calculated. The control value was calculated by the following formula:
Control value (%)=100−{Area percentage of lesions in treatment plot/Area percentage of lesions in untreatment plot}×100.
The results are shown in Tables 8 to 18, along with the expected values calculated as below. Each expected values was calculated from the fungicidal efficacy of a single application of compound of component (I) and the fungicidal efficacy of a single application of compound of component (II) by using Colby's equation:
[formula] • where E represents the expected value of the control value for the composition containing component (I) and component (II), M represents the control value (%) when the component (I) is used alone, and N represents the control value (%) when the component (II) is used alone. When the measured control value for the composition containing component (I) and component (II) is greater than the expected value E, the composition containing component (I) and composition (II) should exert a synergistic effect.

[3] = Table 15, component (II) alone (component (I): None): Azoxystrobin 0.0001, Inpyrfluxam 0.000025, Chlorothalonil 0.0063, Difenoconazole 0.000025, Cyproconazole 0.000025, Tebuconazole 0.000025, Trifloxystrobin 0.0001, Pyraclostrobin 0.0001, Fluazinam 0.0063, Fluxapyroxad 0.000025, Prothioconazole 0.000025, Florylpicoxamid 0.0001, Benzovindiflupyr 0.000025, Mancozeb 0.0063 ppm
[4] = Table 18, component (II) alone (component (I): None): Azoxystrobin 0.0001, Inpyrfluxam 0.000025, Chlorothalonil 0.0063, Difenoconazole 0.000025, Cyproconazole 0.000025, Tebuconazole 0.000025, Trifloxystrobin 0.0001, Pyraclostrobin 0.0001, Fluazinam 0.0063, Fluxapyroxad 0.000025, Prothioconazole 0.000025, Florylpicoxamid 0.0001, Benzovindiflupyr 0.000025, Mancozeb 0.0063 ppm
[5] = Zymoseptoria tritici, component (II) alone, 0.02 ppm, read-out: growth inhibition rate
[6] = Zymoseptoria tritici, component (II) alone, read-out: growth inhibition rate
[7] = Zymoseptoria tritici, component (II) alone, 0.04 ppm, read-out: growth inhibition rate
[8] = Table 14, component (II) alone (component (I): None): Inpyrfluxam 0.00025, Chlorothalonil 0.006, Thiophanate-methyl 0.0001, Tebuconazole 0.000025, Trifloxystrobin 0.0001, Fluazinam 0.006, Prothioconazole 0.000025, Florylpicoxamid 0.0001, Metominostrobin 0.0004 ppm
[9] = Table 16, component (II) alone (component (I): None): Inpyrfluxam 0.000025, Chlorothalonil 0.006, Thiophanate-methyl 0.0001, Tebuconazole 0.000025, Trifloxystrobin 0.0001, Fluazinam 0.006, Prothioconazole 0.000025, Florylpicoxamid 0.0001, Metominostrobin 0.0004 ppm
[10] = Table 17, component (II) alone (component (I): None): Inpyrfluxam 0.000026, Chlorothalonil 0.02, Thiophanate-methyl 0.0004, Tebuconazole 0.0001, Trifloxystrobin 0.0001, Fluazinam 0.006, Prothioconazole 0.000025, Florylpicoxamid 0.0001, Metominostrobin 0.0004 ppm
[11] = Zymoseptoria tritici, read-out: growth inhibition rate
[12] = component (I) alone, 0.0063 ppm
[13] = Zymoseptoria tritici, component (II) alone, 0.25 ppm, read-out: growth inhibition rate
[14] = Zymoseptoria tritici, component (II) alone, 16 ppm, read-out: growth inhibition rate
[15] = Zymoseptoria tritici, component (II) alone, 1 ppm, read-out: growth inhibition rate
[16] = Zymoseptoria tritici, component (II) alone, 0.004 ppm, read-out: growth inhibition rate

Cn1cc(C(=O)Nc2cccc3c2[C@@H]2CC[C@H]3C2=C(Cl)Cl)c(C(F)F)n1 (racemic) [Benzovindiflupyr, benzovindiflupyr, reference compound]
growth inhibition rate ([1]; component (II) alone, 0.01 ppm): 48%
growth inhibition rate ([1]; component (II) alone, 0.04 ppm): 65%
control value [2, 3]: 50%
control value [2, 4]: 50%

Fc1ccc([C@]2(Cn3cncn3)O[C@H]2c2ccccc2Cl)cc1 (racemic) [Epoxiconazole, epoxiconazole]
inhibition at 0.02 ppm [1, 5]: 27%
inhibition at 64 ppm [1, 6]: 94%

CO/C=C(/C(=O)OC)c1ccccc1Oc1cc(Oc2ccccc2C#N)ncn1 [Azoxystrobin, azoxystrobin, reference compound]
growth inhibition rate ([1]; component (II) alone, 0.06 ppm): 10%
growth inhibition rate ([1]; component (II) alone, 1 ppm): 10%
control value [2, 3]: 33%
control value [2, 4]: 0%

Cn1cc(C(=O)Nc2ccc(F)cc2-c2ccc(Cl)c(Cl)c2)c(C(F)F)n1 [Bixafen, bixafen]
growth inhibition rate ([1]; component (II) alone, 0.004 ppm): 27%

N#Cc1c(Cl)c(Cl)c(Cl)c(C#N)c1Cl [Chlorothalonil, chlorothalonil, reference compound]
inhibition at 0.001 ppm ([1]; Zymoseptoria tritici, component (II) alone, 0.001 ppm, read-out: growth inhibition rate): 8%
inhibition at 0.02 ppm [1, 5]: 2%
inhibition at 0.04 ppm [1, 7]: 9%
control value [2, 8]: 44%
control value [2, 3]: 33%
control value [2, 9]: 44%
control value [2, 10]: 75%
control value [2, 4]: 0%

CCON=C1CN(C(=O)Cc2ccc(-c3noc(C(F)(F)F)n3)cc2)C1 [Compound 1]
inhibition at 6.3 ppm [1, 11]: 44%
inhibition at 12.5 ppm [1, 11]: 58%
inhibition at 25 ppm [1, 11]: 70%
inhibition at 50 ppm [1, 11]: 82%
inhibition at 100 ppm [1, 11]: 90%
control value [2, 12]: 12%
control value ([2]; component (I) alone, 0.025 ppm): 48%
control value ([2]; component (I) alone, 0.1 ppm): 75%
control value ([2]; component (I) alone, 0.4 ppm): 99%

O=C(Cc1ccc(-c2noc(C(F)(F)F)n2)cc1)N1CCC(=NOC2CCCCO2)CC1 (stereo not drawn) [Compound 2]
inhibition at 6.3 ppm [1, 11]: 34%
inhibition at 12.5 ppm [1, 11]: 46%
inhibition at 25 ppm [1, 11]: 52%
inhibition at 50 ppm [1, 11]: 59%
inhibition at 100 ppm [1, 11]: 62%

O=C(Cc1ccc(-c2noc(C(F)(F)F)n2)cc1)N1CC(=NOCC(F)F)C1 [Compound 4]
inhibition at 6.3 ppm [1, 11]: 36%
inhibition at 12.5 ppm [1, 11]: 49%
inhibition at 25 ppm [1, 11]: 75%
inhibition at 50 ppm [1, 11]: 99%
inhibition at 100 ppm [1, 11]: 100%
control value [2, 12]: 18%
control value ([2]; component (I) alone, 0.025 ppm): 28%
control value ([2]; component (I) alone, 0.1 ppm): 67%
control value ([2]; component (I) alone, 0.4 ppm): 97%

O=S(=O)([O-])[O-].[Cu+2] [Copper sulfate, copper sulfate]
growth inhibition rate ([1]; component (II) alone, 0.25 ppm): 8%
growth inhibition rate ([1]; component (II) alone, 1 ppm): 24%
growth inhibition rate ([1]; component (II) alone, 16 ppm): 73%

Cc1ccc(-c2c(Cl)nc(C#N)n2S(=O)(=O)N(C)C)cc1 [Cyazofamid, cyazofamid]
inhibition at 0.25 ppm [1, 13]: 0%
inhibition at 4 ppm [1, 6]: 6%
inhibition at 16 ppm [1, 14]: 4%
inhibition at 64 ppm [1, 6]: 27%

CC(C1CC1)C(O)(Cn1cncn1)c1ccc(Cl)cc1 (stereo not drawn) [Cyproconazole, cyproconazole, reference compound]
inhibition at 0.25 ppm [1, 13]: 15%
inhibition at 1 ppm [1, 15]: 1%
control value [2, 3]: 33%
control value [2, 4]: 0%
control value ([2]; component (II) alone, 0.0001 ppm): 88%

CC1COC(Cn2cncn2)(c2ccc(Oc3ccc(Cl)cc3)cc2Cl)O1 (stereo not drawn) [Difenoconazole, difenoconazole]
inhibition at 0.004 ppm [1, 16]: 75%
inhibition at 0.04 ppm [1, 7]: 75%
inhibition at 4 ppm [1, 6]: 85%
inhibition at 16 ppm [1, 14]: 83%
inhibition at 0.0002 ppm ([1]; Zymoseptoria tritici, component (II) alone, .0002 ppm (also printed 0002), read-out: growth inhibition rate): 69%
control value [2, 3]: 75%
control value [2, 4]: 0%

O=[N+]([O-])c1cc(C(F)(F)F)c(Cl)c([N+](=O)[O-])c1Nc1ncc(C(F)(F)F)cc1Cl [Fluazinam, fluazinam, reference compound]
inhibition at 0.004 ppm [1, 16]: 0%
control value [2, 8]: 16%
control value [2, 3]: 0%
control value [2, 9]: 16%
control value [2, 10]: 16%
control value [2, 4]: 50%

Cn1cc(C(=O)Nc2ccccc2-c2cc(F)c(F)c(F)c2)c(C(F)F)n1 [Fluxapyroxad, fluxapyroxad]
growth inhibition rate ([1]; component (II) alone, 0.001 ppm): 32%
growth inhibition rate ([1]; component (II) alone, 0.02 ppm): 63%
growth inhibition rate ([1]; component (II) alone, 1 ppm): 86%
control value [2, 3]: 0%
control value [2, 4]: 75%

CO/C=C(/C(=O)OC)c1ccccc1COc1cccc(C(F)(F)F)n1 [Picoxystrobin, picoxystrobin]
growth inhibition rate ([1]; component (II) alone, 0.02 ppm): 2%
growth inhibition rate ([1]; component (II) alone, 0.06 ppm): 3%
growth inhibition rate ([1]; component (II) alone, 0.25 ppm): 8%
growth inhibition rate ([1]; component (II) alone, 1 ppm): 8%

OC(Cc1ccccc1Cl)(Cn1nc[nH]c1=S)C1(Cl)CC1 (stereo not drawn) [Prothioconazole, prothioconazole, reference compound]
inhibition at 0.02 ppm [1, 5]: 10%
inhibition at 0.25 ppm [1, 13]: 7%
inhibition at 1 ppm [1, 15]: 8%
control value [2, 8]: 44%
control value [2, 3]: 33%
control value [2, 9]: 44%
control value [2, 10]: 44%
control value [2, 4]: 50%

COC(=O)N(OC)c1ccccc1COc1ccn(-c2ccc(Cl)cc2)n1 [Pyraclostrobin, pyraclostrobin, reference compound]
inhibition at 0.02 ppm [1, 5]: 24%
inhibition at 0.25 ppm [1, 13]: 86%
control value [2, 3]: 33%
control value [2, 4]: 0%

CC(C)(C)C(O)(CCc1ccc(Cl)cc1)Cn1cncn1 (stereo not drawn) [Tebuconazole, tebuconazole, reference compound]
inhibition at 0.016 ppm ([1]; Zymoseptoria tritici, component (II) alone, 0.016 ppm, read-out: growth inhibition rate): 0%
inhibition at 0.063 ppm ([1]; Zymoseptoria tritici, component (II) alone, 0.063 ppm, read-out: growth inhibition rate): 33%
inhibition at 64 ppm [1, 6]: 76%
control value [2, 8]: 44%
control value [2, 3]: 33%
control value [2, 9]: 44%
control value [2, 10]: 86%
control value [2, 4]: 33%

CON=C(C(=O)OC)c1ccccc1CON=C(C)c1cccc(C(F)(F)F)c1 [Trifloxystrobin, trifloxystrobin, reference compound]
inhibition at 0.25 ppm [1, 13]: 21%
control value [2, 8]: 16%
control value [2, 3]: 0%
control value [2, 9]: 16%
control value [2, 10]: 16%
control value [2, 4]: 75%
control value ([2]; component (II) alone, 0.0004 ppm): 50%

CCCOC/C(=N\c1ccc(Cl)cc1C(F)(F)F)n1ccnc1 [Triflumizole, triflumizole]
inhibition at 0.06 ppm ([1]; Zymoseptoria tritici, component (II) alone, 0.06 ppm, read-out: growth inhibition rate): 12%
inhibition at 0.25 ppm [1, 13]: 11%
